Measurements published in the NIST ThermoML archive (doi:10.1021/acs.jced.9b00028).
± gives the expanded uncertainty stated by the source.

How the values were obtained:
[1] = Molar enthalpy of transition or fusion; conditions: Crystal; DSC
[2] = Crystal; DSC

| Molar enthalpy of transition or fusion [1] [kcal/mol] | Triple point temperature [2] [K] | SMILES |
| --- | --- | --- |
| 6.05 ± 0.227 | 395.48 ± 1.2 | Oc1ccc(Cl)c2cccnc12 [5-chloro-8-hydroxyquinoline] |
| 9.51 ± 0.263 | 452.15 ± 1.2 | Oc1c(Cl)cc(Cl)c2cccnc12 [5,7-dichloro-8-hydroxyquinoline] |
